The record followed here is patent publication US8338594B2, “Pyrrolotriazine derivatives useful for treating cancer through inhibition of aurora kinase” (Bayer HealthCare LLC, priority 2005, dated 2012).

Some results are limits rather than exact numbers.

Experiment [1] has as its target T1, Aurora Kinase 1 (Homo sapiens, UniProt Q96GD4).
T1 construct: endogenous in cells; host or cells: HT29 colon carcinoma cells
The experiment in a line: capture ELISA measuring Aurora Kinase 1 autophosphorylation in HT29 colon carcinoma cells. The note with it: HT29 cells synchronized for 24 hours, compound treatment 2 hours. It counts as cell-based. The procedure:
To determine the ability of compounds to inhibit Aurora Kinase 1 activity in cells, a capture ELISA measuring Aurora Kinase 1 autophosphorylation was developed in HT29 colon carcinoma cells (Yasui Y, et al 2004). Briefly, 15,000 cells/well were seeded in a 96-well collagen coated plates in RPMI+10% FBS and incubated at 37° C. in 5% CO2 overnight. The following day, the cells were treated with 166 nM nacadazole compounds for 24 hours at 37° C. Synchronized cells were further treated with compounds for 2 hours. Compound dilutions were prepared from 0.1 mM DMSO stocks such that 1.1 μL of each dilution was added to obtain a final concentration ranging from 10 μM to 13 nM in one-third log steps. Following compound treatment, plates were centrifuged at 1000 rpm for 2 minutes and washed twice with 100 μL of cold sterile TBS. Cells were then lysed (100 μL of 150 mM NaCl, 20 mM Tris, pH 7.5, 1 mM EDTA, 1 mM EGTA, 1% Triton-x-100 plus protease and phosphatase inhibitors) by shaking at 4° C. for 1 hour. Cell lysates were transferred to plates pre-coated with anti-phospho mAur1 (Rockland, 600-401-677) and blocked with 5% blocker A in TBS from Meso Scale Discovery. After incubating for 1 hour at RT, plates were washed with 300 μL of TBST for a total of three times. The supernatant was removed and replaced with 50 μL of diluted primary antibody (anti-Aurora Kinase 1, Pharmingen, 611083) at 1:1000 in 2% blocker A in TBS and incubated at room temperature for 1 hour. The antibody buffer was removed from each well and washed three times with 300 μL of cold TBS-T ([…] Tris pH 8.0, 138 mM NaCl, 2.7 mM KCL, 0.05% Tween 20). The wash buffer was replaced with 50 μL of secondary antibody (Sulfa TAG anti-mouse, Meso Scale Discovery) at 1:1000 in 2% blocker A and incubated at room temperature for 1 hour. For the final readout with the Sector 6000, 150 μL of reading buffer T was added and the plates were read immediately.
(In general: In an ELISA, binding on a coated surface is turned into a signal by an enzyme label.)

For experiment [2], the target named is T2, murine Aurora Kinase 1 (mAur1) (Mus musculus, UniProt O70126).
T2 construct: recombinant, GST-tagged mAur 1 (amino acids 67-345) that was co-expressed with human INCENP; GST; made in house
T2 sequence (O70126 67-345): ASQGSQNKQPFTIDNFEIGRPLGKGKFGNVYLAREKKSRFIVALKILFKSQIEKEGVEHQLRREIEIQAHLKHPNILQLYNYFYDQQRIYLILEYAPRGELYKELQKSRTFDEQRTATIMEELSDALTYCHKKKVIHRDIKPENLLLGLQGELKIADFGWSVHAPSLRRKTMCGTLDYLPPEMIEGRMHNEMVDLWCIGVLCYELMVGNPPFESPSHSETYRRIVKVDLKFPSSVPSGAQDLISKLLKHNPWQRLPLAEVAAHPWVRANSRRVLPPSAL
T2 sequence (Q9NQS7 704-918 partner): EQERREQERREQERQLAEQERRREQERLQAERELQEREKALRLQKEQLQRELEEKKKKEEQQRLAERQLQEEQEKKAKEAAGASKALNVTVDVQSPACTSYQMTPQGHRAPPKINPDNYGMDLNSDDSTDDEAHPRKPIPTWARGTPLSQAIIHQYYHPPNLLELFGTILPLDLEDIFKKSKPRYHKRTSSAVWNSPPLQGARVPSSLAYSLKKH
The experiment in a line: murine Aurora Kinase 1 (mAur1) biochemical Scintillation Proximity Assay. The note with it: SPA, biotinylated Peptide 830, 1 μM ATP, 12 nM GST-tagged mAur 1 co-expressed with human INCENP. The procedure:
(§1) Using a Scintillation Proximity Assay (SPA) format, the murine Aurora Kinase 1 (mAur1) and murine Aurora Kinase 2 (mAur2) biochemical assay measures the ability of mAur2 to phosphorylate the substrate, biotinylated Peptide 830 (DRT, Protein Sciences). Once radiolabeled by the enzyme, the biotinylated substrate is captured on streptavidin-coated SPA beads and the radioactivity, in proximity to the SPA beads, is measured. For the generation of IC50 curves, the reaction was performed in 96-well isoplates (Wallac 1450-514) under the following conditions: a 10 mM stock solution of compound (in 100% dimethylsulfoxide; DMSO) was diluted 10 fold in 100% DMSO. Compounds were then serially diluted, 1:5, for an eight point dose curve, in 100% DMSO. A volume of 1 μL of the diluted compound was added to the reaction buffer that consisted of 25 mM HEPES pH 7.5, 1 mM MnCl2, 1 mM MgCl2, 1 mM DTT, 0.01% Tween20. A mixture with a final concentration per well of 1 μM cold ATP, 0.1 μCi ^33P-ATP (Amersham AH9968) and 1 μM biotinylated Peptide 830 was then added. The reaction was initiated with the addition of either recombinant, GST-tagged mAur 1 (amino acids 67-345) that was co-expressed with human INCENP (amino acids 704-919) (DRT, Protein Sciences) at a final concentration of 12 nM or N-terminal His-tagged mAur2 (amino acids 98-395; DRT, Protein Sciences) at a final concentration of 20 nM. The final reaction volume in each well was 100 μL and the final compound concentration ranged from 10 μM-[…] in 1% DMSO. The reaction mixture was allowed to incubate for 1-2 hours with gentle agitation at 25° C. To terminate the reaction, streptavidin-coated SPA beads (Amersham RPNQ0007; 50 μL of 0.5 mg beads dissolved in 165 mM EDTA) were then added to each well and incubation proceeded for an additional 15 minutes at 25° C. The plate was then centrifuged for ten minutes at 2000 rpm. Phosphorylation of the peptide substrate was measured using a Wallac 1450 Microbeta Plus Liquid Scintillation Counter.
On the technique in general: Scintillation proximity formats need no separation of bound from free tracer.

The target of experiment [3] is T3, murine Aurora Kinase 2 (mAur2) (Mus musculus, UniProt P97477).
T3 construct: N-terminal His-tagged mAur2 (amino acids 98-395; DRT, Protein Sciences); His (N); made in house
T3 sequence (P97477 98-395): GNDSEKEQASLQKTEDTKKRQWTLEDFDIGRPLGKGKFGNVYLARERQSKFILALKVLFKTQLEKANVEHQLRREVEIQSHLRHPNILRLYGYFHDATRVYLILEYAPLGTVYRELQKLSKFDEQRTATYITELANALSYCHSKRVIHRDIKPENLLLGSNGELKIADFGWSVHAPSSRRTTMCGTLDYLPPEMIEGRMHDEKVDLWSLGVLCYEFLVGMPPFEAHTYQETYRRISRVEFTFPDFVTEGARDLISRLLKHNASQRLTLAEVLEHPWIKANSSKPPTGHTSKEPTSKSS
The experiment in a line: murine Aurora Kinase 2 (mAur2) biochemical Scintillation Proximity Assay. The conditions noted are these: SPA, biotinylated Peptide 830, 1 μM ATP, 20 nM His-tagged mAur2. The procedure:
as §1

T1 sequence (Q96GD4 whole entry): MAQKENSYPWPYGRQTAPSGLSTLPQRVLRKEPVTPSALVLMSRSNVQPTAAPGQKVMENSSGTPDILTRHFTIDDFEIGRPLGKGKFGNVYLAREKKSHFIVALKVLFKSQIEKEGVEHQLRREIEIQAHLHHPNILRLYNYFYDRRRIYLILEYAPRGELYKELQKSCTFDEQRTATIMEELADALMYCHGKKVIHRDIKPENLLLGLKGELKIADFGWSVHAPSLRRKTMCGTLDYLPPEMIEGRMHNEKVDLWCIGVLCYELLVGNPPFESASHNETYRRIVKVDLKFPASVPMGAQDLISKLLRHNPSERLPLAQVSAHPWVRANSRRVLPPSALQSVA

A word on the IC50: it is the concentration at which inhibition is half-maximal. A low value points to greater potency. As to `CC(C)(C)c1ccc2nc(Nc3ccc(-c4c(C(=O)NCC(F)(F)F)cn5ncnc(N)c45)cc3)[nH]c2c1` [Example 10, 4-amino-5-{4-[(6-tert-butyl-1H-benzimidazol-2-yl)amino]phenyl}-N-(2,2,2-trifluoroethyl)pyrrolo[2,1-f][1,2,4]triazine-6-carboxamide], in experiment [1], the concentration for half-maximal inhibition (IC50) is < 1000 nM. In the case of `Nc1ncnn2cc(C(=O)NCC(F)(F)F)c(-c3ccc(Nc4nc5cc6c(cc5[nH]4)OC(F)(F)O6)cc3)c12` [Example 17, 4-amino-5-{4-[(2,2-difluoro-5H-[1,3]dioxolo[4,5-f]benzimidazol-6-yl)amino]phenyl}-N-(2,2,2-trifluoroethyl)pyrrolo[2,1-f][1,2,4]triazine-6-carboxamide], the values for the IC50 in experiment [2], in experiment [3] and in experiment [1] were < 100 nM, < 100 nM and < 1000 nM, respectively. With `Nc1ncnn2cc(C(=O)NCC(F)(F)F)c(-c3ccc(Nc4nc5ccc(N6CCCC6)nc5[nH]4)cc3)c12` [Example 20, 4-amino-5-{4-[(5-pyrrolidin-1-yl-3H-imidazo[4,5-b]pyridin-2-yl)amino]phenyl}-N-(2,2,2-trifluoroethyl)pyrrolo[2,1-f][1,2,4]triazine-6-carboxamide], the IC50 in experiment [1] was < 1000 nM. Same read-out and setting: for `Nc1ncnn2cc(C(=O)NCC(F)(F)F)c(-c3ccc(Nc4nc5ccc(OC(F)(F)F)cc5[nH]4)cc3)c12` [Example 31, 4-amino-N-(2,2,2-trifluoroethyl)-5-(4-{[6-(trifluoromethoxy)-1H-benzimidazol-2-yl]amino}phenyl)pyrrolo[2,1-f][1,2,4]triazine-6-carboxamide] the value was < 1000 nM. On the same count and under the same terms, for `Nc1ncnn2cc(C(=O)NCC(F)(F)F)c(-c3ccc(Nc4nc5ccc(Oc6ccccc6)c(F)c5[nH]4)cc3)c12` [Example 32, 4-amino-5-{4-[(7-fluoro-6-phenoxy-1H-benzimidazol-2-yl)amino]phenyl}-N-(2,2,2-trifluoroethyl)pyrrolo[2,1-f][1,2,4]triazine-6-carboxamide] the value was < 1000 nM; for `Nc1ncnn2cc(C(=O)NCC(F)(F)F)c(-c3ccc(Nc4nc5ccc(Oc6ccc(F)cc6)c(F)c5[nH]4)cc3)c12` [Example 35, 4-amino-5-(4-{[7-fluoro-6-(4-fluorophenoxy)-1H-benzimidazol-2-yl]amino}phenyl)-N-(2,2,2-trifluoroethyl)pyrrolo[2,1-f][1,2,4]triazine-6-carboxamide], < 1000 nM. With `Nc1ncnn2cc(C(=O)NCC(F)(F)F)c(-c3ccc(Nc4nc5ccc(NC6CCC6)nc5[nH]4)cc3)c12` [Example 47, 4-amino-5-(4-{[5-(cyclobutylamino)-3H-imidazo[4,5-b]pyridin-2-yl]amino}phenyl)-N-(2,2,2-trifluoroethyl)pyrrolo[2,1-f][1,2,4]triazine-6-carboxamide], the IC50 in experiment [2] is < 100 nM; in experiment [3], < 100 nM; in experiment [1], < 1000 nM. For the compound `CC(C)(C)NC(=O)c1cn2ncnc(N)c2c1-c1ccc(Nc2nc3cc(F)cc(F)c3[nH]2)cc1` [Example 72, 4-amino-N-(tert-butyl)-5-{4-[(5,7-difluoro-1H-benzimidazol-2-yl)amino]phenyl}pyrrolo[2,1-f][1,2,4]triazine-6-carboxamide], the IC50 is < 100 nM in experiment [2], < 100 nM in experiment [3] and < 1000 nM in experiment [1]. On to `COCCNC(=O)c1cn2ncnc(N)c2c1-c1ccc(Nc2nc3ccc(Oc4ccccc4)c(F)c3[nH]2)cc1` [Example 110, 4-amino-5-{4-[(7-fluoro-6-phenoxy-1H-benzimidazol-2-yl)amino]phenyl}-N-(2-methoxyethyl)pyrrolo[2,1-f][1,2,4]triazine-6-carboxamide], for which the IC50 in experiment [2] and in experiment [3] was < 100 nM each time. Turning to `CC(C)CNC(=O)c1cn2ncnc(N)c2c1-c1ccc(Nc2nc3ccc(Oc4ccccc4)c(F)c3[nH]2)cc1` [Example 111, 4-amino-5-{4-[(7-fluoro-6-phenoxy-1H-benzimidazol-2-yl)-amino]phenyl}-N-isobutylpyrrolo[2,1-f][1,2,4]triazine-6-carboxamide], the IC50 in experiment [2] and in experiment [3] was < 100 nM each time. `Nc1ncnn2cc(C(=O)NC3CCCC3)c(-c3ccc(Nc4nc5ccc(Oc6ccccc6)c(F)c5[nH]4)cc3)c12` [Example 112, 4-amino-N-cyclopentyl-5-{4-[(7-fluoro-6-phenoxy-1H-benzimidazol-2-yl)amino]phenyl}pyrrolo[2,1-f][1,2,4]triazine-6-carboxamide]: the IC50 in experiment [2] and in experiment [3] was < 100 nM throughout. Regarding `Nc1ncnn2cc(C(=O)N3CCCC3)c(-c3ccc(Nc4nc5ccc(Oc6ccccc6)c(F)c5[nH]4)cc3)c12` [Example 113, 5-{4-[(7-fluoro-6-phenoxy-1H-benzimidazol-2-yl)amino]phenyl}-6-(pyrrolidin-1-ylcarbonyl)pyrrolo[2,1-f][1,2,4]triazin-4-amine], the IC50 in experiment [2] and in experiment [3] was < 100 nM each time. On to `Cc1ccc(-c2ccc3nc(Nc4ccc(-c5c(C(=O)NCC(F)(F)F)cn6ncnc(N)c56)cc4)[nH]c3n2)cc1` [Example 115, 4-amino-5-(4-{[5-(4-methylphenyl)-3H-imidazo[4,5-b]pyridin-2-yl]amino}phenyl)-N-(2,2,2-trifluoroethyl)pyrrolo[2,1-f][1,2,4]triazine-6-carboxamide], for which the IC50 in experiment [2] and in experiment [3] was < 100 nM throughout. On to `COCc1cccc(-c2ccc3nc(Nc4ccc(-c5c(C(=O)NCC(F)(F)F)cn6ncnc(N)c56)cc4)[nH]c3n2)c1` [Example 116, 4-amino-5-[4-({5-[3-(methoxymethyl)phenyl]-3H-imidazo[4,5-b]pyridin-2-yl}amino)phenyl]-N-(2,2,2-trifluoroethyl)pyrrolo[2,1-f][1,2,4]triazine-6-carboxamide], for which the IC50 in experiment [2] and in experiment [3] was < 100 nM in each case. As to `Nc1ncnn2cc(C(=O)O)c(-c3ccc(Nc4nc5ccc(C(F)(F)F)nc5[nH]4)cc3)c12` [Example 119], the concentration for half-maximal inhibition (IC50) in experiment [2] and in experiment [3] was < 100 nM throughout. Consider `Nc1ncnn2cc(C(=O)NCC(F)(F)F)c(-c3ccc(Nc4nc5ccc(C(F)(F)F)nc5[nH]4)cc3)c12` [Example 120, 4-amino-N-(2,2,2-trifluoroethyl)-5-(4-{[5-(trifluoromethyl)-3H-imidazo[4,5-b]pyridin-2-yl]amino}phenyl)pyrrolo[2,1-f][1,2,4]triazine-6-carboxamide], for which the half-inhibitory concentration (IC50) in experiment [2] and in experiment [3] was < 100 nM throughout.
